Data from patent publication US7767659B2, “Synthesis of naturally occurring ecteinascidins and related compounds” (Pharma Mar, S.A., priority 2002, dated 2010).

What was measured:
HT-29 = experiment: cells; settings: Homo sapiens, HT-29, 48 h; for GI50: read-out: HT29 GI50; for CC50: read-out: HT29 LC50; for IC (TGI): read-out: HT29 TGI
Method in brief: (§1)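 Colorimetric SRB read (490 nm) on triplicate wells after 48 h at 37 °C, 5% CO2. Dose range 10 to 10^−8 μg/ml; 5×10^3 cells/well pre-attached 18 h.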

A-549 = experiment: cells; settings: Homo sapiens, A549, 48 h; for GI50: read-out: A549 GI50; for CC50: read-out: A549 LC50; for IC (TGI): read-out: A549 TGI
Method in brief: as §1

LoVo = experiment: cells; settings: Homo sapiens, LoVo, 48 h; for GI50: read-out: LOVO GI50; for CC50: read-out: LOVO LC50; for IC (TGI): read-out: LOVO TGI
Method in brief: as §1

DU-145 = experiment: Inhibition of cells growth by colorimetric assay (SRB); settings: Homo sapiens, DU-145, 48 h; for GI50: read-out: DU145 GI50; for CC50: read-out: DU145 LC50; for IC (TGI): read-out: DU145 TGI
Method in brief: as §1

LoVo-Dox = experiment: as above; settings: Homo sapiens, 48 h; for GI50: read-out: LOVO-DOX GI50; for CC50: read-out: LOVO-DOX LC50; for IC (TGI): read-out: LOVO-DOX TGI
Method in brief: as §1

SK-BR-3 = experiment: as above; settings: Homo sapiens, SK-BR-3, 48 h; for GI50: read-out: SK-BR3 GI50; for CC50: read-out: SK-BR3 LC50; for IC (TGI): read-out: SK-BR3 TGI
Method in brief: as §1

HeLa = experiment: as above; settings: Homo sapiens, HeLa, 48 h; for GI50: read-out: HELA GI50; for CC50: read-out: HELA LC50; for IC (TGI): read-out: HELA TGI
Method in brief: as §1

HeLa-APL = experiment: as above; settings: Homo sapiens, 48 h; for GI50: read-out: HELA-APL GI50; for CC50: read-out: HELA-APL LC50
Method in brief: as §1

K-562 = experiment: as above; settings: Homo sapiens, K562, 48 h; for GI50: read-out: K562 GI50; for CC50: read-out: K562 LC50; for IC (TGI): read-out: K562 TGI
Method in brief: as §1

LNCaP = experiment: as above; settings: Homo sapiens, LNCaP, 48 h; for GI50: read-out: LNCAP GI50; for CC50: read-out: LNCAP LC50; for IC (TGI): read-out: LNCAP TGI
Method in brief: as §1

SK-MEL-28 = experiment: as above; settings: Homo sapiens, SK-MEL-28, 48 h; for GI50: read-out: MEL-28 GI50; for CC50: read-out: MEL-28 LC50; for IC (TGI): read-out: MEL-28 TGI
Method in brief: as §1

PANC-1 = experiment: as above; settings: Homo sapiens, PANC-1, 48 h; for GI50: read-out: PANC-1 GI50; for CC50: read-out: PANC-1 LC50; for IC (TGI): read-out: PANC-1 TGI
Method in brief: as §1

IGROV-ET = experiment: as above; settings: Homo sapiens, 48 h; for GI50: read-out: IGROV-ET GI50; for CC50: read-out: IGROV-ET LC50; for IC (TGI): read-out: IGROV-ET TGI
Method in brief: as §1

IGROV-1 = experiment: as above; settings: Homo sapiens, IGROV-1, 48 h; for GI50: read-out: IGROV GI50; for CC50: read-out: IGROV LC50; for IC (TGI): read-out: IGROV TGI
Method in brief: as §1

For `COC1=C(C)C(=O)C2=C(C1=O)[C@@H]1C3[C@@H]4SC[C@]5(NCCc6c5[nH]c5ccccc65)C(=O)OC[C@@H](c5c6c(c(C)c(OC(C)=O)c54)OCO6)N3[C@@H](O)[C@H](C2)N1C` (some centres unmarked) [ET-736-quinone], the GI50 (HT-29) was 0.0512 µM, the CC50 (HT-29) was 13 µM and the IC (TGI) (HT-29) was 0.128 µM. For the same compound, the GI50 (A-549) was 0.0256 µM, the CC50 (A-549) was 0.109 µM and the IC (TGI) (A-549) was 0.0529 µM. The GI50 (LoVo) was 0.265 µM, the CC50 (LoVo) was 1.3 µM and the IC (TGI) (LoVo) was 0.596 µM. For the same compound, the GI50 (DU-145) was 0.0451 µM, the CC50 (DU-145) was 0.129 µM and the IC (TGI) (DU-145) was 0.0763 µM. For the same compound, the GI50 (LoVo-Dox) was 0.747 µM, the CC50 (LoVo-Dox) was 13 µM and the IC (TGI) (LoVo-Dox) was 3.28 µM. It also gave a GI50 (SK-BR-3) of 0.00533 µM, a CC50 (SK-BR-3) of 0.192 µM and an IC (TGI) (SK-BR-3) of 0.0113 µM. For the same compound, the GI50 (HeLa) was 3.32 µM, the CC50 (HeLa) was 0.114 µM and the IC (TGI) (HeLa) was 6.14 µM. It also gave a GI50 (HeLa-APL) of 0.0555 µM, a CC50 (HeLa-APL) of 0.111 µM and an IC (TGI) (HeLa-APL; read-out: HELA-APL TGI) of 0.0784 µM. For the same compound, the GI50 (K-562) was 0.00496 µM, the CC50 (K-562) was 0.105 µM and the IC (TGI) (K-562) was 0.0137 µM. For the same compound, the GI50 (LNCaP) was 0.0248 µM, the CC50 (LNCaP) was 0.0799 µM and the IC (TGI) (LNCaP) was 0.0446 µM. It also gave a GI50 (SK-MEL-28) of 0.123 µM, a CC50 (SK-MEL-28) of 0.718 µM and an IC (TGI) (SK-MEL-28) of 0.3 µM. The GI50 (PANC-1) was 0.394 µM, the CC50 (PANC-1) was 13 µM and the IC (TGI) (PANC-1) was 0.957 µM. For the same compound, the GI50 (IGROV-ET) was 0.51 µM, the CC50 (IGROV-ET) was 1.2 µM and the IC (TGI) (IGROV-ET) was 0.782 µM. For the same compound, the GI50 (IGROV-1) was 0.0671 µM, the CC50 (IGROV-1) was 0.735 µM and the IC (TGI) (IGROV-1) was 0.215 µM.
`C=CCN1[C@@H]2c3c(cc(C)c(OC)c3O)C[C@H]1[C@H](C#N)N1C2[C@@H]2SC[C@]3(NCCc4cc(O)c(OC)cc43)C(=O)OC[C@H]1c1c3c(c(C)c(OC(=O)CCCCCCC)c12)OCO3` (some centres unmarked) [compound 50] gave a GI50 (HT-29) of 8.9 µM, a CC50 (HT-29) of 11.3 µM and an IC (TGI) (HT-29) of 11.3 µM. The GI50 (A-549) was 3.76 µM, the CC50 (A-549) was 11.3 µM and the IC (TGI) (A-549) was 11.3 µM. It also gave a GI50 (LoVo) of 4.94 µM, a CC50 (LoVo) of 11.3 µM and an IC (TGI) (LoVo) of 11.3 µM. For the same compound, the GI50 (DU-145) was 1.8 µM, the CC50 (DU-145) was 1130 µM and the IC (TGI) (DU-145) was 918 µM. The GI50 (LoVo-Dox) was 10.1 µM, the CC50 (LoVo-Dox) was 11.3 µM and the IC (TGI) (LoVo-Dox) was 11.3 µM. For the same compound, the GI50 (SK-BR-3) was 13.1 µM, the CC50 (SK-BR-3) was 11.3 µM and the IC (TGI) (SK-BR-3) was 11.3 µM. The GI50 (HeLa) was 3.75 µM, the CC50 (HeLa) was 11.3 µM and the IC (TGI) (HeLa) was 11.3 µM. For the same compound, the GI50 (HeLa-APL) was 3.11 µM, the CC50 (HeLa-APL) was 11.3 µM and the GI50 (K-562) was 0.891 µM. It also gave a CC50 (K-562) of 11.3 µM, an IC (TGI) (K-562) of 11.3 µM and a GI50 (LNCaP) of 0.948 µM. For the same compound, the CC50 (LNCaP) was 11.3 µM, the IC (TGI) (LNCaP) was 3.68 µM and the GI50 (SK-MEL-28) was 2.53 µM. It also gave a CC50 (SK-MEL-28) of 11.3 µM, an IC (TGI) (SK-MEL-28) of 8.36 µM and a GI50 (PANC-1) of 2.45 µM. For the same compound, the CC50 (PANC-1) was 11.3 µM, the IC (TGI) (PANC-1) was 11.3 µM and the GI50 (IGROV-ET) was 3.29 µM. It also gave a CC50 (IGROV-ET) of 11.3 µM, an IC (TGI) (IGROV-ET) of 11.3 µM and a GI50 (IGROV-1) of 2.42 µM. It also gave a CC50 (IGROV-1) of 1130 µM and an IC (TGI) (IGROV-1) of 11.3 µM.
